SMILES strings stand for the structures. pIC50: −log10 of the molar value. Several values for one entry are separate records, joined by “and”; a condition that tells them apart may be missing. Identical values can stand only once. Where only a bound is given, the exact number is not on record here.

In the assay the target is T1, HEK 293 GPR73 (prokineticin 1 receptor) expressing cells (Homo sapiens, UniProt Q8TCW9).
T1 construct: expressed in transfected cells; host or cells: HEK 293
The experiment in a line: PK1 functional assay: screening for PK1 antagonists on the FLIPR (calcium fluorescence). The class given is cell-based. As to conditions: HEK 293 GPR73 cells; for inhibition at 10 µM: HEK293, compound at 10 μM, read-out: Ca^2+ Mobilization % Inh @10 μM; for inhibition at 10 µM / Ca^2+ Mobilization % Inh @10 μM: multiple values = repeat tests; for pIC50: PK1 ligand at EC50, multiple values = repeat tests, read-out: Ca^2+ Mobilization IC50; for Ca^2+ Mobilization % Inh @10 μM: compound at 10 μM. The method, boiled down:
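HEK 293 cells expressing GPR73 were loaded with Calcium Plus Dye for 30 min at 37 C, then read for calcium fluorescence on FLIPR. Values were baseline-subtracted and expressed as percent of maximal control; percent inhibition is 100 minus that, and IC50 was fitted from it.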

T1 sequence (Q8TCW9 whole entry): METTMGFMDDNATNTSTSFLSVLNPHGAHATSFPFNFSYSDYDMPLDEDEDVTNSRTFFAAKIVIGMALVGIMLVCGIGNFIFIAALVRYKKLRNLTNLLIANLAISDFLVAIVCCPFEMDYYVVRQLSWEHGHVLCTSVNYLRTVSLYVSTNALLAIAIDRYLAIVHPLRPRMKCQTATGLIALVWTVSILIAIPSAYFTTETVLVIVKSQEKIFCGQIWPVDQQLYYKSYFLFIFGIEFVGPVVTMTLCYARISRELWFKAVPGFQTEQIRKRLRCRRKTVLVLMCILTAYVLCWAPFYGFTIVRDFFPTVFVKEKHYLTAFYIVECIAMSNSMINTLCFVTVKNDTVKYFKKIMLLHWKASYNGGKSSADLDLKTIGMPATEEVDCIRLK

On to `COc1ccc(Cn2c(NCCNC(=N)N)nc(=O)n(Cc3ccc(N)cc3)c2=O)cc1` [Cpd 125, N-{2-[5-(4-Amino-benzyl)-1-(4-methoxy-benzyl)-4,6-dioxo-1,4,5,6-tetrahydro-[1,3,5]triazin-2-ylamino]-ethyl}-guanidine], for which the inhibition at 10 µM stood at 83% and the pIC50 was 6.31.
For `COc1ccc(Cn2c(NCCNC(=N)NC3C4CC5CC(C4)CC3C5)nc(=O)n(Cc3ccc(F)cc3)c2=O)cc1` (centres unmarked) [Cpd 126], the inhibition at 10 µM was found to be 95% and the pIC50 was 6.94.
For the molecule `COc1ccc(Cn2c(NCCNC(=N)Nc3ccc(OC(F)(F)F)cc3)nc(=O)n(Cc3ccc(F)cc3)c2=O)cc1` [Cpd 127], the inhibition at 10 µM turned out to be 100% and the negative-log IC50 (pIC50) was 7.24.
Consider `COc1ccc(Cn2c(NCCNC(=N)Nc3ccc(O)cc3)nc(=O)n(Cc3ccc(F)cc3)c2=O)cc1` [Cpd 128], for which the inhibition at 10 µM is 100% and the negative-log IC50 (pIC50) is 7.40.
With `NC(N)=NCCNc1nc(=O)n(Cc2ccc(Cl)cc2)c(=O)n1Cc1ccccc1` [Cpd 129], the inhibition at 10 µM was 64% and the pIC50 was 5.32.
For `N=C(N)NCCNc1nc(=O)n(Cc2ccc(Cl)cc2)c(=O)n1Cc1ccoc1` [Cpd 130], the inhibition at 10 µM is 71% and the negative-log IC50 (pIC50) is 5.73.
In the case of `COc1ccc(Cn2c(NC3CCC(NC(=N)N)CC3)nc(=O)n(Cc3ccc(F)cc3)c2=O)cc1` (centres unmarked) [Cpd 131], the pIC50 is below 5.00 and the “Ca^2+ Mobilization % Inh @10 μM” value was 32%.
As to `COc1ccc(Cn2c(NCC(=O)NC(=N)NC(=O)OC(C)(C)C)nc(=O)n(Cc3ccc(F)cc3)c2=O)cc1` [Cpd 132, N-{2-[5-(4-fluoro-benzyl)-1-(4-methoxy-benzyl)-4,6-dioxo-1,4,5,6-tetrahydro-[1,3,5]triazin-2-ylamino]-acetyl}-N′-boc-guanidine], the inhibition at 10 µM worked out at 54% and the negative-log IC50 (pIC50) is 5.07.
For the molecule `COc1ccc(Cn2c(NCCNC(=N)Nc3ccccc3SC)nc(=O)n(Cc3ccc(F)cc3)c2=O)cc1` [Cpd 133], the inhibition at 10 µM turned out to be 93% and the pIC50 is 6.70.
`COc1ccc(Cn2c(NCCN(C(=N)N)C(=O)c3ccccc3)nc(=O)n(Cc3ccc(F)cc3)c2=O)cc1` [Cpd 134, N-Benzoyl-N-{2-[5-(4-fluoro-benzyl)-1-(4-methoxy-benzyl)-4,6-dioxo-1,4,5,6-tetrahydro-[1,3,5]triazin-2-ylamino]-ethyl}-guanidine]: the pIC50 was 7.72 and 7.55; the “Ca^2+ Mobilization % Inh @10 μM” value is on record as 97, 97%.
In the case of `COc1ccc(Cn2c(NCCNC(=N)Nc3ncccn3)nc(=O)n(Cc3ccc(F)cc3)c2=O)cc1` [Cpd 135], the inhibition at 10 µM was 100%; the negative logarithm of the IC50 (pIC50) was 7.89 and 7.62. Moreover, the “Ca^2+ Mobilization % Inh @10 μM” value (10 µM) worked out at 94%.
Take `COc1ccc(Cn2c(N[C@@H](C)[C@H](C)NC(=N)N)nc(=O)n(Cc3ccc(F)cc3)c2=O)cc1` [Cpd 136]: the inhibition at 10 µM was found to be 50% and the pIC50 was below 5.00.
Regarding `COc1ccc(Cn2c(N[C@H](C)[C@@H](C)NC(=N)N)nc(=O)n(Cc3ccc(F)cc3)c2=O)cc1` [Cpd 137], the inhibition at 10 µM stood at 101%; the pIC50 is 7.82 and 7.51.
For `COc1ccc(Cn2c(NCCNC(=N)Nc3nc4c(c(C(F)(F)F)n3)CCCC4)nc(=O)n(Cc3ccc(F)cc3)c2=O)cc1` [Cpd 138], the inhibition at 10 µM is 70% and the negative-log IC50 (pIC50) is 5.87.
For the molecule `COc1ccc(Cn2c(NCCNC(=N)Nc3ccc(C)cn3)nc(=O)n(Cc3ccc(F)cc3)c2=O)cc1` [Cpd 139], the inhibition at 10 µM is 95% and the pIC50 is 7.74.
The corresponding values for `COc1ccc(Cn2c(NCCNC(=N)N3CCOCC3)nc(=O)n(Cc3ccc(F)cc3)c2=O)cc1` [Cpd 140] are 89% and 6.34.
The matching figures for `N=C(N)NCCNc1nc(=O)n(Cc2ccc(Cl)cc2)c(=O)n1Cc1ccco1` [Cpd 141]: 73% and 5.74.
Consider `COc1ccc(Cn2c(NCCCCCNC(=N)N)nc(=O)n(Cc3ccc(Cl)cc3)c2=O)cc1` [Cpd 142], for which the inhibition at 10 µM was found to be 90% and the pIC50 is 6.49.
Turning to `COc1ccc(Cn2c(=O)nc(NCCNC(=N)N)n(Cc3ccc(O)cc3)c2=O)cc1` [Cpd 143, N-{2-[1-(4-Hydroxy-benzyl)-5-(4-methoxy-benzyl)-4,6-dioxo-1,4,5,6-tetrahydro-[1,3,5]triazin-2-ylamino]-ethyl}-guanidine], the inhibition at 10 µM is 100%; the pIC50 is 8.22 and 7.57.
Consider `COc1ccc(Cn2c(NCCCCCCNC(=N)N)nc(=O)n(Cc3ccc(Cl)cc3)c2=O)cc1` [Cpd 144], for which the inhibition at 10 µM was 77% and the negative logarithm of the IC50 (pIC50) is 5.88.
For the molecule `COc1ccc(CCn2c(=O)nc(NCCNC(=N)N)n(Cc3ccc(OC)cc3)c2=O)cc1` [Cpd 145], the inhibition at 10 µM amounted to 86% and the negative logarithm of the IC50 (pIC50) is 6.34.
The corresponding values for `COc1ccc(CCCn2c(=O)nc(NCCNC(=N)N)n(Cc3ccc(OC)cc3)c2=O)cc1` [Cpd 146] are 87% and 6.17.
For `COC(=O)c1ccc(Cn2c(NCCNC(=N)N)nc(=O)n(Cc3ccc(Cl)c(Cl)c3)c2=O)cc1` [Cpd 147], the inhibition at 10 µM was 82%.
Take `CCCCOc1ccc(Cn2c(NCCNC(=N)N)nc(=O)n(Cc3ccccc3)c2=O)cc1` [Cpd 148]: the inhibition at 10 µM is 41% and the pIC50 is below 5.00.
Consider `NC(N)=NCCNc1nc(=O)n(Cc2ccc(Cl)cc2)c(=O)n1Cc1ccccc1` [Cpd 149], for which the pIC50 was 5.32 and the “Ca^2+ Mobilization % Inh @10 μM” value came out at 64%.
For the molecule `N=C(N)NCCNc1nc(=O)n(Cc2ccc(Cl)cc2)c(=O)n1Cc1ccoc1` [Cpd 150], the negative logarithm of the IC50 (pIC50) is 5.73 and the “Ca^2+ Mobilization % Inh @10 μM” value was determined as 71%.
With `COc1ccc(Cn2c(NCCNC(=N)NC(C)=O)nc(=O)n(Cc3ccc(F)cc3)c2=O)cc1` [Cpd 151], the inhibition at 10 µM worked out at 99% and the pIC50 is 8.52.
On to `C=CCNC(=N)NCCNc1nc(=O)n(Cc2ccc(F)cc2)c(=O)n1Cc1ccc(OC)cc1` [Cpd 152], for which the inhibition at 10 µM is 97% and the negative logarithm of the IC50 (pIC50) was 8.05.
The corresponding values for `COc1ccc(Cn2c(NCCNC(=N)NC(C)C)nc(=O)n(Cc3ccc(F)cc3)c2=O)cc1` [Cpd 153] are 99% and 7.89.
On to `CCCNC(=N)NCCNc1nc(=O)n(Cc2ccc(F)cc2)c(=O)n1Cc1ccc(OC)cc1` [Cpd 154], for which the inhibition at 10 µM turned out to be 99%; the pIC50 was 8.52 and 8.22. Where the note is “10 µM”, the “Ca^2+ Mobilization % Inh @10 μM” value worked out at 98%.
For `CCNC(=N)NCCNc1nc(=O)n(Cc2ccc(F)cc2)c(=O)n1Cc1ccc(OC)cc1` [Cpd 155], the inhibition at 10 µM is 99% and the pIC50 is 7.80.
On to `CNC(=N)NCCNc1nc(=O)n(Cc2ccc(F)cc2)c(=O)n1Cc1ccc(OC)cc1` [Cpd 156], for which the inhibition at 10 µM turned out to be 102%; the negative-log IC50 (pIC50) is 8.40 and 8.15. For the same molecule, the “Ca^2+ Mobilization % Inh @10 μM” value (10 µM) was found to be 99%.
Consider `COc1ccc(Cn2c(C(=O)NCCNC(=N)N)cc(=O)n(Cc3ccc(OC)cc3)c2=O)cc1` [Cpd 157, 1,3-Bis-(4-methoxy-benzyl)-2,6-dioxo-1,2,3,6-tetrahydro-pyrimidine-4-carboxylic acid (2-guanidino-ethyl)-amide], for which the inhibition at 10 µM turned out to be 92% and the negative-log IC50 (pIC50) was 6.71.

For the origin of these results see patent US20080045535A1, “Prokineticin 2 receptor antagonists” (priority 2005, published 2008).
